Assay results as given in patent publication US9006208B2, “Agent for treatment of dry eye characterized by combining P2Y2 receptor agonist and hyaluronic acid or salt thereof, method for treating dry eye, and use of the P2Y2 receptor agonist and hyaluronic acid or salt thereof” (Santen Pharmaceutical Co., Ltd., priority 2010, dated 2015).

Legend:
rabbits = conditions: Current Eye Research 21(4), 782-787 (2000); cited from earlier work
[1] = tested on: normal male white rabbits; test: Pharmacological Test 3: change in tear meniscus area (3% diquafosol sodium, 0.002% sodium hyaluronate); type: in vivo, rabbit; conditions: 35 minutes after administration, 50 μL, combination: hyaluronate 5 min after diquafosol
Procedure: For the purpose of examining as to whether or not an increase in tear meniscus area values is observed when a P2Y2 receptor agonist at a therapeutically effective concentration is combined with hyaluronic acid or a salt thereof at a concentration which is employed as an additive, the time course of a change in the tear meniscus area value after the sequential ocular instillation of the 3% diquafosol sodium and the 0.002% sodium hyaluronate was evaluated in the same manner as in Pharmacological test 1.
A 3% diquafosol sodium ophthalmic solution was prepared in the same manner as in the above-mentioned Pharmacological test 1. A 0.002% sodium hyaluronate ophthalmic solution was prepared by diluting “Hyalein® ophthalmic solution 0.3%” manufactured and sold by Santen Pharmaceutical Co., Ltd. with physiological saline.
With respect to normal male white rabbits (24 eyes of 12 rabbits in total), a photograph of a tear meniscus before the administration of a drug was taken in the same manner as in pharmacological test 1. […]
(§1) The change in the tear meniscus area before and after the administration of each of the drugs was calculated as a “Δ tear meniscus area value”.

[2] = tested on: normal male white rabbits; test: Pharmacological Test 4: change in tear meniscus area (3% diquafosol sodium, 0.3% sodium hyaluronate); type: in vivo, rabbit; conditions: after 35 minutes, 50 μL, combination: hyaluronate 5 min after diquafosol
Procedure: The time course of a change in tear meniscus area values after the sequential instillation of 3% diquafosol sodium and 0.3% sodium hyaluronate into eyes was evaluated in the same manner as in Pharmacological test 1.
A 3% diquafosol sodium ophthalmic solution was prepared in the same manner as in the above-mentioned Pharmacological test 1. “Hyalein® ophthalmic solution 0.3%” manufactured and sold by Santen Pharmaceutical Co., Ltd. was used as a 0.3% sodium hyaluronate ophthalmic solution.
With respect to each of normal male white rabbits (18 eyes of 9 rabbits in total), a photograph of a tear meniscus was taken before the administration of each of the drug in the same manner as in Pharmacological test 1. […]
as §1

[3] = tested on: normal male white rabbits; test: Pharmacological Test 1: change in tear meniscus area after ocular instillation (3% diquafosol sodium, 0.1% sodium hyaluronate); type: in vivo, rabbit; conditions: 50 μL instilled once, FIG. 1
Procedure: The change in the tear fluid volume can be evaluated by measuring the value of a tear meniscus area stained with a fluorescein solution (Exp. Eye. Res., 78(3), 399-407 (2004)). Then, the time course of a change in the tear meniscus area value after the sequential administration of diquafosol sodium, which is a P2Y2 receptor agonist, and sodium hyaluronate to eyes was evaluated in accordance with the method of Murakami et al. (Ophthalmic Res., 34, 371-374 (2002)), using normal male white rabbits. […]
A 0.1% fluorescein solution (3 μL) was administered onto a tear meniscus of the lower eyelid of each of normal male white rabbits (40 eyes of 20 rabbits in total), and a photograph of the tear meniscus that was stained with fluorescein accumulated in the eyelid was taken. The area of the stained tear meniscus part in the photograph was calculated using image analysis software, and the resultant value was employed as a baseline. […]
The change in the tear meniscus area before and after the administration of each of the drugs was calculated as “Δ tear meniscus area value”. […]

[4] = tested on: rat model from which an exorbital lacrimal gland is excised, additionally applied airflow (corneal epithelial disorder); test: Pharmacological Test 2: corneal fluorescein staining score in rat dry eye model (exorbital lacrimal gland excised plus airflow); type: in vivo; conditions: 5 μL into both eyes 6 times per day for 6 weeks; 3% diquafosol sodium, 0.1% sodium hyaluronate; compared with non-administered group; FIG. 2
Text: A rat model from which an exorbital lacrimal gland is excised therefrom has been generally used as a model for evaluating therapeutic effects on corneal epithelial disorders induced by dry eye, and has also been used as a model for evaluating therapeutic effects of P2Y2 receptor agonists (Invest. Ophthalmol. Vis. Sci., 42(1), 96-100 (2001)). Using a dry eye model which is additionally applied airflow to the rat model, it was examined whether or not an improvement effect on corneal epithelial disorders could be achieved by the administration of a P2Y2 receptor agonist at a therapeutically effective concentration and hyaluronic acid or a salt thereof at a therapeutically effective concentration in combination. […]
Six weeks after the initiation of the instillation into eyes, an affected part of the cornea was stained with fluorescein, and the occurrence of the corneal epithelial disorder was determined in accordance with the method by Murakami et al. (Journal of the Eye (Atarashii Ganka), 21(1), 87-90 (2004)). That is, with respect to each of an upper part, an intermediate part and a lower part of the cornea, scores of the degree of staining with fluorescein were determined in accordance with the criteria mentioned below, and the average value of the sum total of the scores was calculated. […]

[5] = clinical tests; Cornea 23(8), 784-792 (2004); cited from earlier work

SMILES | secretion of tear (rabbits) | Δ tear meniscus area value [1] | Δ tear meniscus area value [2] | Δ tear meniscus area value ([3]; 10 minutes after administration (of the first agent)) | Δ tear meniscus area value ([3]; 35 minutes after administration (of the first agent)) | fluorescein staining scores of the cornea [4] | keratoconjunctival epithelial disorders [5] | secretion of tear [5]
Nc1ncnc2c1ncn2[C@@H]1O[C@H](COP(=O)(O)OP(=O)(O)OP(=O)(O)O)[C@@H](O)[C@H]1O [ATP, Adenosine 5′-triphosphate] | can promote the secretion of tear in rabbits |  |  |  |  |  |  | 
O=c1ccn([C@@H]2O[C@H](COP(=O)(O)OP(=O)(O)OP(=O)(O)OP(=O)(O)OC[C@H]3O[C@@H](n4ccc(=O)[nH]c4=O)C(O)[C@H]3O)[C@H](O)C2O)c(=O)[nH]1 (stereo partly drawn) [Diquafosol, P^1,P^4-bis(5′-uridyl)tetraphosphate] |  | 1 .127 mm^2 | 1.434 mm^2 | increase in the tear meniscus area value was observed | increase in the tear meniscus area value was observed | the tendency of improvement in fluorescein staining scores was observed, the improvement that can be considered as being statistically significant was not observed | ameliorated keratoconjunctival epithelial disorders | promoted the secretion of tear
O=c1ccn([C@@H]2O[C@H](COP(=O)(O)OP(=O)(O)OP(=O)(O)O)[C@@H](O)[C@H]2O)c(=O)[nH]1 [UTP, Uridine 5′-triphosphate] | can promote the secretion of tear in rabbits |  |  |  |  |  |  | 
